Laboratory results taken from patent publication US6723897B2, “Methods for controlling gibberellin levels” (Monsanto Technology, LLC, priority 1998, dated 2004).

What was measured:
Format in all cases: in vivo, Glycine max
[1] = system: constitutively GA-deficient transgenic dwarf soybean line 719; assay: Field trial of seed coating application rates, GA-deficient soybean; conditions: for 719 Height, cm, Heavy soil / 719 Height, cm, Light soil / No. 719 Emerged, Heavy soil / No. 719 Emerged, Light soil / No. 719 Not Rescued, Heavy soil / No. 719 Not Rescued, Light soil: seed coating
Method: GA3, GA3-3-acetate, GA5, GA9, and GA12 are evaluated in further field trials. […] The objectives of these tests are: 1) to determine if seed coatings, as compared to imbibition, of GA compounds facilitate rescue of constitutively GA-deficient transgenic dwarf soybeans (transgenic lines 719−2 plus 719+17) without causing elongation of wild-type soybeans (line A4922), and 2) to determine the seed treatment rate ranges for each of the selected GA compounds that would provide rescue of constitutively GA-deficient transgenic dwarf soybeans (transgenic lines 719−2 plus 719+17) without causing elongation of wild-type soybeans (line A4922).
Seeds are treated with GA3, GA5, GA9, GA12, and GA3-3-acetate at rates of 0, 0.1, 1, 10, and 100 μg/seed. These GA compounds are applied to the seeds using a Hege 11 seed treater (Hans-Ulrich Hege GmbH & Co., Waldenburg, Germany); 100% acetone is used as the carrier solvent. The amount of liquid introduced into the seed treater is six fluid ounces/100 lbs seed rate. In addition, GA12 is tested at 50 μg/seed. The untreated control (UTC) consisted of dry, untreated seeds. Seeds of constitutively GA-deficient transgenic dwarf soybean line 719 and wild-type A4922 are sown in both light and heavy soil. The planting depth is 0.5 to 1 inch (1.27 to 2.54 cm); watering is via drip irrigation. The experiment is carried out in three repetitions, using 25 seeds/plot (one five foot (152.4 cm) long row) for line 719, and 75 seeds/plot (two eight foot (243.8 cm) rows) for line A4922. Observations included total emergence, number of dwarfs not rescued, uniformity in plant height, average plant height, visual notes, and digital photos.
In all the experiments reported in Tables 17-24, treatments are replicated three times in a randomized block design. Data are analyzed using LSD (least significant difference) 0.05 probability using the PRM 5.0 Statistical Analysis Program (SAS Institute, North Carolina).

[2] = system: wild-type soybean line A3237; assay: Experiment II second greenhouse test, seed imbibition, wild-type soybean; conditions: 0.0025 mg/ml; seeds imbibed 6 hours
Method: (The compounds are tested in Experiment I at only one concentration, i.e., 0.25 mg/ml). Test tubes contained […] of ethanol solution per tube. Final volumes are made up to 30 ml with deionized water. After shaking, the treatment solutions (15 ml each) are transferred to each of two 50 ml test tubes. […] Twenty seeds are used in each treatment. Dry seed, ethanol/water-imbibed seed (1% ethanol in water, v/v), and water-imbibed seeds are included as controls. Seeds are imbibed for 6 hours in the test solutions, then planted in bread pans containing Metromix 350 (The Scotts Company, Marysville, Ohio), and covered with 0.5″ Metro-mix. Covered pans are transferred to the greenhouse and subirrigated. Illumination is at a light intensity of 300-400 μmolm^−2s^−1 photosynthetic photon flux; 16 hours light/8 hours dark. Subsequent waterings are also through sub-irrigation until the test is terminated three weeks later. Observations included the number of dwarf, intermediate, and tall plants; plant height; uniformity of rescue; and any visual effects. Digital photographs are also taken.

[3] = system: non-transgenic soybean line A4922; assay: Field trial of seed coatings under soil compaction / different soils, wild-type soybean; conditions: for Count (emergence) / Height (total plant height): A4922
Method: The second trial (data reported in Tables 22-24) tested the precursors under conditions of soil compaction.
As noted above, the second trial tested the noted precursors under conditions of soil compaction. These experiments are performed in the same manner as in the first trial, except that the soil is compacted with an all-terrain vehicle.
“Height” equals total plant height in cm.

[4] = Heavy soil - Loose, target rate 0.5 μg/seed, Table 23
[5] = Heavy soil - Loose, target rate 2.0 μg/seed, Table 23
[6] = Heavy soil - Loose, target rate 4.0 μg/seed, Table 23
[7] = Heavy soil - compacted, target rate 0.5 μg/seed, Table 23
[8] = Heavy soil - compacted, target rate 2.0 μg/seed, Table 23
[9] = Heavy soil - loose, target rate 0.5 μg/seed, Table 22
[10] = Heavy soil - loose, target rate 2.0 μg/seed, Table 22
[11] = Light soil - Compacted, target rate 0.5 μg/seed, Table 22
[12] = Light soil - Compacted, target rate 2.0 μg/seed, Table 22
[13] = Light soil - Loose, target rate 0.5 μg/seed, Table 24
[14] = Light soil - Loose, target rate 2.0 μg/seed, Table 24
[15] = Light soil - Loose, target rate 4.0 μg/seed, Table 24
[16] = Light soil - compacted, target rate 0.5 μg/seed, Table 24
[17] = Light soil - compacted, target rate 2.0 μg/seed, Table 24
[18] = Light soil - compacted, target rate 4.0 μg/seed, Table 24

Q: Which “719 Height, cm, Heavy soil” value ([1]; 0.1 μg compound per seed) does the source give for C=C1C[C@]23C[C@@]1(O)CC[C@H]2[C@@]12C=C[C@H](OC(C)=O)[C@@](C)(C(=O)O1)[C@H]2[C@@H]3C(=O)O [GA3-3-acetate] here?
A: The value was 3.3 e-i cm.

Q: And the “719 Height, cm, Light soil” value ([1]; 0.1 μg compound per seed)?
A: The value was 5.3 efg cm.

Q: And the “No. 719 Emerged, Heavy soil” value ([1]; 0.1 μg compound per seed)?
A: Its value is 18.7 a-d.

Q: What about the “No. 719 Emerged, Light soil” value ([1]; 0.1 μg compound per seed) of the same molecule?
A: The value was 21.0 ab.

Q: What about the “No. 719 Not Rescued, Heavy soil” value ([1]; 0.1 μg compound per seed) of the same molecule?
A: Its value is 0.3 ef.

Q: And the No. 719 Not Rescued, Light soil ([1]; 0.1 μg compound per seed)?
A: Its No. 719 Not Rescued, Light soil is 0.7.

Q: And the “719 Height, cm, Heavy soil” value ([1]; 1 μg compound per seed)?
A: The value was 6.0 cd cm.

Q: And the “719 Height, cm, Light soil” value ([1]; 1 μg compound per seed)?
A: Its value is 6.3 e cm.

Q: What about the “No. 719 Emerged, Heavy soil” value ([1]; 1 μg compound per seed) of the same molecule?
A: Its value is 21.3 abc.

Q: And the “No. 719 Emerged, Light soil” value ([1]; 1 μg compound per seed)?
A: Its value is 21.7 ab.

Q: And the “No. 719 Not Rescued, Heavy soil” value ([1]; 1 μg compound per seed)?
A: The value was 0 f.

Q: And the No. 719 Not Rescued, Light soil ([1]; 1 μg compound per seed)?
A: The No. 719 Not Rescued, Light soil was 0.3.

Q: And the “719 Height, cm, Heavy soil” value ([1]; 10 μg compound per seed)?
A: Its value is 9.0 ab cm.

Q: What about the “719 Height, cm, Light soil” value ([1]; 10 μg compound per seed) of the same molecule?
A: The value was 9.3 cm·days.

Q: What about the “No. 719 Emerged, Heavy soil” value ([1]; 10 μg compound per seed) of the same molecule?
A: The value was 17.7 a-e.

Q: What about the “No. 719 Emerged, Light soil” value ([1]; 10 μg compound per seed) of the same molecule?
A: The value was 20.3 a-d.

Q: And the “No. 719 Not Rescued, Heavy soil” value ([1]; 10 μg compound per seed)?
A: Its value is 0 f.

Q: What about the No. 719 Not Rescued, Light soil ([1]; 10 μg compound per seed) of the same molecule?
A: The No. 719 Not Rescued, Light soil was 0.

Q: And the “719 Height, cm, Heavy soil” value ([1]; 100 μg compound per seed)?
A: Its value is 8.7 ab cm.

Q: And the “719 Height, cm, Light soil” value ([1]; 100 μg compound per seed)?
A: The value was 12.0 b cm.

Q: And the “No. 719 Emerged, Heavy soil” value ([1]; 100 μg compound per seed)?
A: The value was 16.7 b-e.

Q: And the “No. 719 Emerged, Light soil” value ([1]; 100 μg compound per seed)?
A: Its value is 17.7 b-f.

Q: And the “No. 719 Not Rescued, Heavy soil” value ([1]; 100 μg compound per seed)?
A: The value was 0 f.

Q: And the No. 719 Not Rescued, Light soil ([1]; 100 μg compound per seed)?
A: Its No. 719 Not Rescued, Light soil is 0.

Q: What about the “preferred seed coating rate in this experiment” value ([1]; judged on lines 719 and A4922, light and heavy soil) of the same molecule?
A: The value was “about 1 μg per seed”.

Q: And the “Significant Visual Observations on Line A3237” value [2]?
A: The value was “Normal height”.

Q: And the “Count (emergence)” value [3, 4]?
A: Its value is 29.0 a-d.

Q: And the “Height (total plant height)” value [3, 4]?
A: The value was 5.3 g·cm·days.

Q: And the “Count (emergence)” value [3, 5]?
A: The value was 15.3 f.

Q: And the “Height (total plant height)” value [3, 5]?
A: Its value is 6.0 c-f cm.

Q: And the Count (emergence) [3, 6]?
A: The Count (emergence) was 7.

Q: And the “Height (total plant height)” value [3, 6]?
A: The value was 8.0 ab cm.

Q: What about the “Count (emergence)” value [3, 7] of the same molecule?
A: The value was 4.0 de.

Q: What about the “Height (total plant height)” value [3, 7] of the same molecule?
A: The value was 5.3 b-e cm.

Q: And the “Count (emergence)” value [3, 8]?
A: Its value is 6.0 cde.

Q: What about the “Height (total plant height)” value [3, 8] of the same molecule?
A: The value was 5.7 bcd cm.

Q: What about the “Count (emergence)” value ([3]; Heavy soil - compacted, target rate 4.0 μg/seed, Table 23) of the same molecule?
A: Its value is 0 e.

Q: And the “Count (emergence)” value [3, 9]?
A: The value was 29 a-d.

Q: What about the “Height (total plant height)” value [3, 9] of the same molecule?
A: Its value is 5.3 g·cm·days.

Q: And the “Count (emergence)” value [3, 10]?
A: Its value is 15 f.

Q: What about the “Height (total plant height)” value [3, 10] of the same molecule?
A: The value was 6.0 c-f cm.

Q: And the “Count (emergence)” value [3, 11]?
A: Its value is 28 bcd.

Q: And the “Height (total plant height)” value [3, 11]?
A: Its value is 6.3 cm·days.

Q: What about the “Count (emergence)” value [3, 12] of the same molecule?
A: The value was 18 def.

Q: What about the “Height (total plant height)” value [3, 12] of the same molecule?
A: The value was 8.7 c cm.

Q: And the “Count (emergence)” value [3, 13]?
A: Its value is 44.3 abc.

Q: And the “Height (total plant height)” value [3, 13]?
A: Its value is 6.3 f cm.

Q: And the “Count (emergence)” value [3, 14]?
A: Its value is 42.0 abc.

Q: What about the “Height (total plant height)” value [3, 14] of the same molecule?
A: The value was 9.7 bc cm.

Q: What about the “Count (emergence)” value [3, 15] of the same molecule?
A: The value was 42.3 abc.

Q: What about the “Height (total plant height)” value [3, 15] of the same molecule?
A: Its value is 10.3 b cm.

Q: What about the “Count (emergence)” value [3, 16] of the same molecule?
A: Its value is 27.7 cd.

Q: And the “Height (total plant height)” value [3, 16]?
A: The value was 6.3 cm·days.

Q: And the “Count (emergence)” value [3, 17]?
A: The value was 18.0 def.

Q: What about the “Height (total plant height)” value [3, 17] of the same molecule?
A: Its value is 8.7 c cm.

Q: What about the “Count (emergence)” value [3, 18] of the same molecule?
A: The value was 22.7 dc.

Q: And the “Height (total plant height)” value [3, 18]?
A: Its value is 11.0 ab cm.

Q: And the “plant height dose/response in wild-type line A4922 (FIG. 40)” value ([3]; in vivo)?
A: Its value is “dose/response curves similar to that of GA3”.
